The values that follow come from patent publication US8734853B2, “HDL particles for delivery of nucleic acids” (University of North Texas Health Science Center at Fort …, priority 2008, dated 2014).

The subject of data set [1] is SKOV3ip1. Description: Ki-67 staining (cell proliferation index) of tumors from SKOV3ip1 model. The data set is classed as in vivo, female athymic nude mice. Particulars: compared with control group. The text has this:
Effect of STAT3 targeting on tumor microenvironment. […] The combination of STAT3 siRNA/rHDL and docetaxel reduced tumor cell proliferation by 48% (P<0.01) compared with control group (FIG. 7).

Data set [2] deals with SKOV3ip1 ovarian cancer cells. The data set is described as follows: Annexin-V PE/7AAD flow cytometry apoptosis assay. Particulars: docetaxel 4 nM, 48 hours after docetaxel treatment. The format is cell-based. (Flow cytometry measures light scatter and fluorescence of single cells or particles in a stream.)
Procedure: All in vitro experiments were conducted using 4.0 nM concentration of docetaxel in SKOV3ip1 ovarian cancer cells. These cells were treated with docetaxel after STAT3 gene was silenced using siRNA (as described above) for 48 hours.
Additionally, to determine the effects of in vitro STAT3 targeting on apoptosis, STAT3 gene was silenced in SKOV3ip1 ovarian cancer cells using an siRNA targeted against STAT3 and followed by treatment with docetaxel (4 nM). 48 hours after docetaxel treatment, the extent of cell death secondary to apoptosis was analyzed after Annexin-V PE/7AAD staining with flow cytometry.
For another data set, the system named is HeyA8. Description: Orthotopic mouse model of ovarian carcinoma (HeyA8). The data set is classed as in vivo, female athymic nude mice. The protocol: Orthotopic mouse model. The 10- to 12-week-old female athymic nude mice were obtained from the US National Cancer Institute. All experiments were approved by the Institutional Animal Care and Use Committee of the M.D. Anderson Cancer Center. […] Tumor cells for appropriate ovarian cancer mouse models (HeyA8, 2.5×105; SKOV3ip1 and […], 1.0×106) were injected intraperitoneally into mice on day 0. Mice randomized into appropriate groups on day 7 when tumors had been established and were palpable. After 3-5 weeks of treatment (depending on the model), mice were necropsied and tumors were harvested. Small interfering RNA (siRNA). Specific siRNAs targeted against Stat3-7 (target sequence [NT] ID NO:1), FAK (target Sequence [NT] ID NO:2) and control siRNA targeted against (target sequence:[NT] ID NO:3) were purchased from Sigma-Aldrich Corporation, (Woodland, Tex.). These were incorporated into r-HDL nanoparticles, as previously described (Mooberry et al., 2009). 5 ug of r-HDL incorporated siRNA was injected intraperitoneally twice weekly. For in vitro studies, mRNA-specific or nonspecific (control) siRNA was incorporated into Qiagen RNAiFect transfection agent (1 ug of siRNA to 3 uL of RNAiFect). […] Cells were first transfected with STAT3 siRNA. Twenty-four hours after transfection, media was changed to standard siRNA-free media and cells were treated with docetaxel (see below for details). Reagents. Docetaxel was purchased from Sanofi-Aventis (Bridgewater, N.J.). […] These cells were treated with docetaxel after STAT3 gene was silenced using siRNA (as described above) for 48 hours. In In vivo experiments, appropriate groups received treatment with docetaxel starting on day 7, once a week, intraperitoneally at: 50 ug/mouse (HeyA8 and HeyA8-MDR) and 30 ug/mouse (SKOV3). […] Statistics. Continuous variables were compared with the use of the Student t test (between 2 groups) or analysis of variance (for all groups) if normally distributed, and with the use of the Mann-Whitney rank sum test or Kruskal Wallis test (for all groups) if nonparametric. […]

Data set [3] concerns tumor associated angiogenesis. Description: CD31 staining, microvessel density (MVD) of tumor samples. As to conditions: compared with control siRNA/rHDL treatment.
Procedure: Paraffin sections for CD31 (1:800 dilution, Pharmingen), were stained at 4° C. […] To quantify MVD, five random 0.159 mm2 fields at 100× magnification for each tumor were examined, and microvessels within those fields were counted (Thaker et al., 2005).
In order to ascertain the effects of STAT3 silencing on tumor associated angiogenesis, CD 31 staining on fresh frozen tumor samples from all four treatment groups (FIG. 7) was determined along with microvessel density (MVD).
The test system of data set [4] is SKOV3ip1. The data set is described as follows: Orthotopic ovarian cancer mouse model (SKOV3ip1). The data set is classed as in vivo, female athymic nude mice. As to conditions: compared to control group. Here is the method:
(§1) Orthotopic mouse model. The 10- to 12-week-old female athymic nude mice were obtained from the US National Cancer Institute. All experiments were approved by the Institutional Animal Care and Use Committee of the M.D. Anderson Cancer Center. […] Tumor cells for appropriate ovarian cancer mouse models (HeyA8, 2.5×105; SKOV3ip1 and […], 1.0×106) were injected intraperitoneally into mice on day 0. Mice randomized into appropriate groups on day 7 when tumors had been established and were palpable. After 3-5 weeks of treatment (depending on the model), mice were necropsied and tumors were harvested. Small interfering RNA (siRNA). Specific siRNAs targeted against Stat3-7 (target sequence [NT] ID NO:1), FAK (target Sequence [NT] ID NO:2) and control siRNA targeted against (target sequence:[NT] ID NO:3) were purchased from Sigma-Aldrich Corporation, (Woodland, Tex.). These were incorporated into r-HDL nanoparticles, as previously described (Mooberry et al., 2009). 5 ug of r-HDL incorporated siRNA was injected intraperitoneally twice weekly. For in vitro studies, mRNA-specific or nonspecific (control) siRNA was incorporated into Qiagen RNAiFect transfection agent (1 ug of siRNA to 3 uL of RNAiFect). […] Cells were first transfected with STAT3 siRNA. Twenty-four hours after transfection, media was changed to standard siRNA-free media and cells were treated with docetaxel (see below for details). […]

The test system of data set [5] is SKOV3ip1. The data set is described as follows: TUNEL staining of tumor tissues from the SKOV3ip1 model. Particulars: SKOV3ip1 model tumors, compared to control group. The data set is classed as in vivo, female athymic nude mice. The protocol:
TUNEL Staining. Assessment of apoptosis, frozen sections stained by terminal deoxynucleotidyl transferase-mediated deoxyuridine triphosphate nick-end labeling (TUNEL; green; Promega, Madison, Wis.), was performed as described previously (Shahzad et al., 2009). The samples were counterstained with Hoechst 1:10,000 (Thaker et al., 2005). An apoptotic body was represented by green fluorescence. To quantify apoptotic cells, the number of TUNEL positive cells was calculated in 10 random fields at the original magnification 200× from five separate slides (per group) and averaged.
STAT3 is known to increase cell survival and inhibit apoptosis (Shen et al., 2001; Catlett-Falcone et al., 1999; Zushi et al., 1998; Masude et al., 2002). To assess whether STAT3 knockdown would enhance the efficacy of docetaxel treatment by enhancing its ability to produce apoptosis., fluorescents labeled TUNEL staining was performed on fresh frozen tumor tissues from the SKOV3ip1 ovarian cancer treatment model.

A further data set relates to HeyA8MDR. The data set is described as follows: Multi-drug resistant model of ovarian carcinoma (HeyA8MDR). As to conditions: compared to control siRNA/rHDL. The format is in vivo, female athymic nude mice. The protocol: as §1
In the next data set the test system is HCT116. As to conditions: HCT116 model, compared to controls.
In a further data set the test system is Ovarian Tumor Cells. Description: Gene expression profile after STAT3 knockdown (Illumina microarray / quantitative RT-PCR). The data set is classed as cell-based. The protocol:
Effect of STAT3 Silencing on Gene Expression profile of Ovarian Tumor Cells. STAT3 knockdown using siRNA targeted against STAT3, microarray analysis using Illumina platform was performed There were 460 genes that were identified to have differential expression levels between the control and STAT3 targeted group. Data was then analyzed using ingenuity-pathway assistance and 32 genes that were involved in cell survival and apoptosis were chosen (Table 1).

Data set [6] has as its system SKOV3ip1 ovarian cancer cells. The data set is described as follows: MTT assay, docetaxel after STAT3 siRNA transfection. The data set is classed as cell-based. Particulars: SKOV3ip1 cells transfected with STAT3 siRNA, docetaxel in escalating doses, compared to docetaxel treatment. The protocol:
Small interfering RNA (siRNA). Specific siRNAs targeted against Stat3—7 (target sequence 5′-[…]-3′; SEQ ID NO:1), FAK (target Sequence 5′-[…]-3′; SEQ ID NO:2) and control siRNA targeted against (target sequence:5′-[…]-3′; SEQ ID NO:3) were purchased from Sigma-Aldrich Corporation, (Woodland, Tex.). These were incorporated into r-HDL nanoparticles, as previously described (Mooberry et al., 2009). 5 ug of r-HDL incorporated siRNA was injected intraperitoneally twice weekly. For in vitro studies, mRNA-specific or nonspecific (control) siRNA was incorporated into Qiagen RNAiFect transfection agent (1 ug of siRNA to 3 uL of RNAiFect). Only 70% to 80% confluent SKOV3ip1 cells were utilized. Cells were first transfected with STAT3 siRNA. Twenty-four hours after transfection, media was changed to standard siRNA-free media and cells were treated with docetaxel (see below for details).
MTT assay. SKOV3 cell (1.5×105) cells were plated in each well, using 6 well plates. Cells were then transfected with control or STAT3 siRNA overnight. […] Forty-eight hours after docetaxel treatment, the number of viable cells was determined by adding 50 μL of 0.15% 3-(4,5-dimethylthiazol-2-yl)-2,5-diphenyl tetrazolium bromide (MTT; Sigma) to each well. […] Viable cells were quantified by measuring the absorbance at 570 nm using a uQuant plate reader (Bio-Tek, Winooski, Vt.). […]
Background: Tetrazolium dyes change colour on reduction, which living cells bring about.

Where [7] appears, read: STAT3 targeting study, compared to the control group.

For the molecule `CC(=O)O[C@@]12CO[C@@H]1C[C@H](O)[C@@]1(C)C(=O)[C@H](O)C3=C(C)[C@@H](OC(=O)[C@H](O)[C@@H](NC(=O)OC(C)(C)C)c4ccccc4)C[C@@](O)([C@@H](OC(=O)c4ccccc4)[C@H]21)C3(C)C` [docetaxel], the “reduction in tumor cell proliferation (Ki-67)” value in the data set on SKOV3ip1 [1] turned out to be 30%. Also, the “increase in apoptosis compared to control” value in [2] is recorded as 5.2 fold. Further, the “reduction in tumor growth” value is recorded as 74% in the data set with HeyA8 (FAK targeting study), 62% with HeyA8 (setting [7]), 78% in the data set on SKOV3ip1 [4] and 17% with HeyA8MDR. In addition, the “reduction in tumor metastasis” value in the data set on HeyA8 (setting [7]) is recorded as 77%. In addition, the “reduction in MVD (tumor associated vessel counts, CD31)” value in [3] is 66%. In the data set with SKOV3ip1 [5], the “increase in tumor cell apoptosis (TUNEL)” value is listed as 12 fold.

For the molecule `O=C1[O][Pt]2([NH][C@@H]3CCCC[C@H]3[NH]2)[O]C1=O` [oxaliplatin], the “reduction in tumor growth” value in the data set with HCT116 came to 55%.

For “STAT3 siRNA: siRNA against Stat3 (SEQ ID NO:1), transfected in vitro with Qiagen RNAiFect transfection agent (GCCUCUCUGCAGAAUUCAA; listed as RNA, chemistry not given here)”, the “Fold Change” value in the data set on Ovarian Tumor Cells (gene ALOX5, Stat3 silencing vs control) is on record as 1.43 fold; in the data set with Ovarian Tumor Cells (gene ATF6, Stat3 silencing vs control), 0.44 fold; in the data set with Ovarian Tumor Cells (gene BAX, Stat3 silencing vs control), 1.49 fold; in the data set on Ovarian Tumor Cells (gene BCL6, Stat3 silencing vs control), 0.72 fold; with Ovarian Tumor Cells (gene BEX2, Stat3 silencing vs control), 1.46 fold; in the data set with Ovarian Tumor Cells (gene CAV1, Stat3 silencing vs control), 0.75 fold. The “Fold Change” value with Ovarian Tumor Cells (gene CD24, Stat3 silencing vs control) was 0.73 fold; in the data set on Ovarian Tumor Cells (gene CDCP1, Stat3 silencing vs control) it was 0.73 fold; in the data set on Ovarian Tumor Cells (gene CTGF, Stat3 silencing vs control) it was 0.62 fold; in the data set on Ovarian Tumor Cells (gene CYR61, Stat3 silencing vs control) it was 0.68 fold; with Ovarian Tumor Cells (gene DKK1, Stat3 silencing vs control) it was 0.72 fold; in the data set on Ovarian Tumor Cells (gene DUSP1, Stat3 silencing vs control), 0.74 fold. Moreover, the “Fold Change” value was 0.56 fold in the data set with Ovarian Tumor Cells (gene ETS2, Stat3 silencing vs control); 0.68 fold in the data set with Ovarian Tumor Cells (gene FGF2, Stat3 silencing vs control); 0.72 fold with Ovarian Tumor Cells (gene FOS, Stat3 silencing vs control); 1.79 fold with Ovarian Tumor Cells (gene HM OX1, Stat3 silencing vs control); 0.45 fold with Ovarian Tumor Cells (gene IGFBP3, Stat3 silencing vs control); 0.55 fold in the data set with Ovarian Tumor Cells (gene IL-1B, Stat3 silencing vs control). Besides, the “Fold Change” value in the data set on Ovarian Tumor Cells (gene IL-6, Stat3 silencing vs control) turned out to be 0.61 fold; with Ovarian Tumor Cells (gene KITLG, Stat3 silencing vs control), 0.66 fold; in the data set on Ovarian Tumor Cells (gene NFKBIZ, Stat3 silencing vs control) it was 0.65 fold; with Ovarian Tumor Cells (gene NQO1, Stat3 silencing vs control) it was 0.55 fold; in the data set on Ovarian Tumor Cells (gene NRP1, Stat3 silencing vs control), 0.67 fold; with Ovarian Tumor Cells (gene PLAUR, Stat3 silencing vs control), 0.72 fold. For the same molecule, the “Fold Change” value was found to be 0.69 fold in the data set with Ovarian Tumor Cells (gene PMAIP1, Stat3 silencing vs control); 0.71 fold in the data set on Ovarian Tumor Cells (gene PMEPA1, Stat3 silencing vs control); 0.68 fold with Ovarian Tumor Cells (gene PRKRA, Stat3 silencing vs control); 0.68 fold in the data set with Ovarian Tumor Cells (gene RASA1, Stat3 silencing vs control); 1.37 fold in the data set with Ovarian Tumor Cells (gene RTN1, Stat3 silencing vs control); 0.55 fold in the data set on Ovarian Tumor Cells (gene SFRP1, Stat3 silencing vs control). Besides, the “Fold Change” value came to 0.68 fold in the data set on Ovarian Tumor Cells (gene SGK1, Stat3 silencing vs control); 0.7 fold in the data set with Ovarian Tumor Cells (gene SPARC, Stat3 silencing vs control); 0.77 fold in the data set on Ovarian Tumor Cells (gene SPP1, Stat3 silencing vs control); 0.23 fold with Ovarian Tumor Cells (gene STAT3, Stat3 silencing vs control); 0.71 fold with Ovarian Tumor Cells (gene TCF3, Stat3 silencing vs control); 0.61 fold with Ovarian Tumor Cells (gene TNFRSF11B, Stat3 silencing vs control). In addition, the “Fold Change” value with Ovarian Tumor Cells (gene TNFSF10, Stat3 silencing vs control) was found to be 0.7 fold; in the data set with Ovarian Tumor Cells (gene XBP1, Stat3 silencing vs control), 0.74 fold. Also, the “increase in apoptosis compared to control” value in data set [2] was 3 fold. In addition, in [6], the “effect of STAT3 silencing on IC 50 values of docetaxel” value is “lowered the IC 50 values of docetaxel significantly”.
